From patent US20200163984A1, “USE OF ISOVALERYL SPIRAMYCIN I, II AND/OR III IN MANUFACTURING MEDICAMENT FOR TREATING AND/OR PREVENTING TUMOR, AND MEDICAMENT” (SHENYANG FUYANG PHARMACEUTICAL TECHNOLOGY CO., LTD., priority 2017, published 2020)

Legend:
[1] = Thymus index and spleen index of Lewis lung cancer tumor-bearing mice; conditions: n = 6
Method: In the Lewis lung cancer model, the mice inoculated with the tumor were randomly divided into groups with 10 mice in each group the next day of inoculation. The groups included: a model control group, a positive drug cyclophosphamide control group (CTX, 30 mg/kg), isovaleryl spiramycin I groups with doses of 13, 26 and 52 mg/kg; isovaleryl spiramycin II groups with doses of 13, 26 and 52 mg/kg; isovaleryl spiramycin III groups with doses of 13, 26 and 52 mg/kg. Each group was continuously administered intragastrically for 15 days with a dose of 20 ml/kg.

[2] = tested on: transplanted tumor of human lymphoma cell U937; assay: U937 transplanted tumor in nude mice; conditions: for Tumor Volume (mm3) (d 1): d1
Method: (§1) U937 cells in a logarithmic growth phase were taken and subjected to a trypan blue exclusion experiment showing that the cell viability was more than 95%, then the cells were subjected to trypsinization, centrifugation, and supernatant removal. Then cell concentration was adjusted to 1×10^7/ml with matrigel, then each nude mouse was inoculated subcutaneously with 0.2 ml of cells at its right armpit and recorded as the first day of inoculation. When the tumor grows to be greater than or equal to 100 mm^3, the mice were randomly divided into 11 groups with 6 mice in each group: a model group, a cyclophosphamide group, isovaleryl spiramycin I groups with doses of 25, 50 and 100 mg/kg, isovaleryl spiramycin II groups with doses of 25, 50 and 100 mg/kg, and isovaleryl spiramycin III groups with doses of 25, 50 and 100 mg/kg. Each group was continuously administered intragastrically for 30 days with a dose of 20 ml/kg. The mice were sacrificed the next day after drug withdrawal and the indicators were tested. The long diameter and short diameter of the tumor, and the body weight of each mouse were recorded every 3 days from drug administration to nude mouse sacrifice.
(§2) The body weight of the nude mice and the long diameter (a) and short diameter (b) of the transplanted tumor were measured every 3 days, and the tumor volume (v), relative tumor volume (RTV) and relative tumor proliferation rate (T/C) are calculated respectively according to the following formulas, wherein V=a×b^2/2; RTV=V/V0 (V0 is the tumor volume before administration, V is the tumor volume before sacrifice), and T/C (%)=treatment group RTV/model control group RTV×100%.
(§3) Each mouse was weighed and sacrificed. After the tumor was completely stripped off from the body of the mouse, the non-tumor tissues such as blood stains and fat were removed to weigh the tumor and calculate the tumor growth inhibition rate. The average tumor weight of each group of mice is used as an indicator of efficacy. Tumor growth inhibition rate (%)=(1−the average tumor weight of the treatment group/the average tumor weight of the model group)×100%.

[3] = tested on: transplanted tumor of human thyroid cancer cell TPC-1; assay: TPC-1 transplanted tumor in nude mice; conditions: for Tumor Volume (mm3) (d30): d 30
Method: as §1, with “Then” for “U937 cells in a logarithmic growth phase were taken and subjected to a trypan blue exclusion experiment showing that the cell viability was more than 95%, then the cells were subjected to trypsinization, centrifugation, and supernatant removal. Then”, “group:” for “group: a model group, a cyclophosphamide group,”
as §2, §3

[4] = U937, high dose (100 mg/kg in method) i.g. 30 days
[5] = U937, low dose (25 mg/kg in method) i.g. 30 days
[6] = U937, medium dose (50 mg/kg in method) i.g. 30 days
[7] = TPC-1, high dose (100 mg/kg in method) i.g. 30 days
[8] = TPC-1, low dose (25 mg/kg in method) i.g. 30 days
[9] = TPC-1, medium dose (50 mg/kg in method) i.g. 30 days

COC1C(OC(C)=O)CC(=O)OC(C)CC=CC=CC(OC2CCC(N(C)C)C(C)O2)C(C)CC(CC=O)C1OC1OC(C)C(OC2CC(C)(O)C(OC(=O)CC(C)C)C(C)O2)C(N(C)C)C1O (stereo not shown) [Isovaleryl spiramycin II, isovaleryl spiramycin II]
Spleen Index (%) ([1]; dose 13 mg/kg): 0.75 ± 0.24% | Thymus Index (%) ([1]; dose 13 mg/kg): 0.12 ± 0.08% | Spleen Index (%) ([1]; dose 26 mg/kg): 0.68 ± 0.21% | Thymus Index (%) ([1]; dose 26 mg/kg): 0.14 ± 0.02% | Spleen Index (%) ([1]; dose 52 mg/kg): 0.66 ± 0.17% | Thymus Index (%) ([1]; dose 52 mg/kg): 0.15 ± 0.09% | Relative Tumor Proliferation Rate (T/C) [2, 4]: 46.09% | tumor growth inhibition rate [2, 4]: 43.63% | Relative Tumor Proliferation Rate (T/C) [2, 5]: 74.19% | tumor growth inhibition rate [2, 5]: 25.61% | tumor volume and relative tumor volume compared with the model group ([2]; U937, low, medium and high doses, P<0.05): significantly lower | Relative Tumor Proliferation Rate (T/C) [2, 6]: 52.10% | tumor growth inhibition rate [2, 6]: 35.44% | Inhibition Rate (%) ([2]; U937 nude mice, 12.5 mg/kg): 25.61% | Relative Tumor Proliferation Rate (T/C) ([2]; U937 nude mice, 12.5 mg/kg): 74.19% | Relative Tumor Volume (RTV) ([2]; U937 nude mice, 12.5 mg/kg): 12.64 ± 5.00 | Tumor Weight ([2]; U937 nude mice, 12.5 mg/kg): 1.44 ± 0.64 g | Tumor Volume (mm3) (d 1) ([2]; U937 nude mice, 12.5 mg/kg): 111.58 ± 23.26 mm3 | Tumor Volume (mm3) (d30) ([2]; U937 nude mice, 12.5 mg/kg): 1400.95 ± 558.82 mm3 | Inhibition Rate (%) ([2]; U937 nude mice, 25 mg/kg): 35.44% | Relative Tumor Proliferation Rate (T/C) ([2]; U937 nude mice, 25 mg/kg): 52.10% | Relative Tumor Volume (RTV) ([2]; U937 nude mice, 25 mg/kg): 8.88 ± 2.64 | Tumor Weight ([2]; U937 nude mice, 25 mg/kg): 1.25 ± 0.66 g | Tumor Volume (mm3) (d 1) ([2]; U937 nude mice, 25 mg/kg): 120.21 ± 24.68 mm3 | Tumor Volume (mm3) (d30) ([2]; U937 nude mice, 25 mg/kg): 1117.59 ± 565.29 mm3 | Inhibition Rate (%) ([2]; U937 nude mice, 50 mg/kg): 43.63% | Relative Tumor Proliferation Rate (T/C) ([2]; U937 nude mice, 50 mg/kg): 46.09% | Relative Tumor Volume (RTV) ([2]; U937 nude mice, 50 mg/kg): 7.85 ± 3.27 | Tumor Weight ([2]; U937 nude mice, 50 mg/kg): 1.09 ± 0.62 g | Tumor Volume (mm3) (d 1) ([2]; U937 nude mice, 50 mg/kg): 111.50 ± 7.03 mm3 | Tumor Volume (mm3) (d30) ([2]; U937 nude mice, 50 mg/kg): 885.75 ± 418.53 mm3 | mouse weight compared with the model group ([2]; mouse, in vivo): no significant changes | Body Weight (g) (d1) ([2]; mouse, in vivo, 12.5 mg/kg): 21.10 ± 0.64 g | Body Weight (g) (d30) ([2]; mouse, in vivo, 12.5 mg/kg): 20.97 ± 0.74 g | Body Weight (g) (d1) ([2]; mouse, in vivo, 25 mg/kg): 21.05 ± 0.30 g | Body Weight (g) (d30) ([2]; mouse, in vivo, 25 mg/kg): 21.03 ± 0.632 g | Body Weight (g) (d1) ([2]; mouse, in vivo, 50 mg/kg): 20.80 ± 0.51 g | Body Weight (g) (d30) ([2]; mouse, in vivo, 50 mg/kg): 21.22 ± 0.51 g | Relative Tumor Proliferation Rate (T/C) [3, 7]: 38.61% | tumor growth inhibition rate [3, 7]: 62.04% | Relative Tumor Proliferation Rate (T/C) [3, 8]: 86.15% | tumor growth inhibition rate [3, 8]: 20.91% | tumor volume and relative tumor volume compared with the model group ([3]; TPC-1, low, medium and high doses, P<0.05): significantly lower | Relative Tumor Proliferation Rate (T/C) [3, 9]: 59.08% | tumor growth inhibition rate [3, 9]: 31.61% | Inhibition Rate (%) ([3]; dose 25 mg/kg): 20.91% | Relative Tumor Proliferation Rate (T/C) ([3]; dose 25 mg/kg): 86.15% | Relative Tumor Volume (RTV) ([3]; dose 25 mg/kg): 14.18 ± 1.70 | Tumor Weight ([3]; dose 25 mg/kg): 1.91 ± 0.33 g | Tumor Volume (mm3) (d 1) ([3]; dose 25 mg/kg): 119.12 ± 3.42 mm3 | Tumor Volume (mm3) (d30) ([3]; dose 25 mg/kg): 1689.63 ± 210.37 mm3 | Inhibition Rate (%) ([3]; dose 50 mg/kg): 31.61% | Relative Tumor Proliferation Rate (T/C) ([3]; dose 50 mg/kg): 59.08% | Relative Tumor Volume (RTV) ([3]; dose 50 mg/kg): 9.72 ± 3.02 | Tumor Weight ([3]; dose 50 mg/kg): 1.65 ± 0.32 g | Tumor Volume (mm3) (d 1) ([3]; dose 50 mg/kg): 118.54 ± 6.49 mm3 | Tumor Volume (mm3) (d30) ([3]; dose 50 mg/kg): 1148.57 ± 344.78 mm3 | Inhibition Rate (%) ([3]; dose 100 mg/kg): 62.04% | Relative Tumor Proliferation Rate (T/C) ([3]; dose 100 mg/kg): 38.61% | Relative Tumor Volume (RTV) ([3]; dose 100 mg/kg): 6.36 ± 2.38 | Tumor Weight ([3]; dose 100 mg/kg): 0.92 ± 0.42 g | Tumor Volume (mm3) (d 1) ([3]; dose 100 mg/kg): 117.30 ± 6.48 mm3 | Tumor Volume (mm3) (d30) ([3]; dose 100 mg/kg): 754.42 ± 320.69 mm3 | mouse weight compared with the model group ([3]; mouse, in vivo): no significant changes | Body Weight (g) (d1) ([3]; mouse, in vivo, 25 mg/kg): 20.54 ± 1.45 g | Body Weight (g) (d30) ([3]; mouse, in vivo, 25 mg/kg): 21.16 ± 1.37 g | Body Weight (g) (d1) ([3]; mouse, in vivo, 50 mg/kg): 20.07 ± 1.13 g | Body Weight (g) (d30) ([3]; mouse, in vivo, 50 mg/kg): 12.45 ± 1.63 g | Body Weight (g) (d1) ([3]; mouse, in vivo, 100 mg/kg): 21.78 ± 1.53 g | Body Weight (g) (d30) ([3]; mouse, in vivo, 100 mg/kg): 12.11 ± 1.20 g
